SMILES strings stand for the structures.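 Step 1: Grow cells in 96-well plates. Step 2: Expose to compound for 48 hours at 5 concentrations. Step 3: Interpolate endpoints linearly; if unreached, use highest concentration. GI50: concentration for 50% inhibition of growth.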 The source made the active and inactive calls. Rule as the data show it: active = GI50 up to about 1.1 µM and inactive = higher.

Test systems include XF498; A498; UACC-257; SK-OV-3; HOP-18; M19-MEL; DLD-1; SNB-78; KM-20L2; SNB-19; SNB-75; DMS-273; SF-295; NCI/ADR-RES; MCF7; SR; CAKI-1; ACHN; MDA-MB-435; BT-549.
Holding throughout (assay): inhibition of tumour cell growth, NCI panel, 48 h

In the case of `O=C(O)CCC(NC(=O)c1ccc(Nc2nc3cc(C(F)(F)F)ccc3nc2-c2ccccc2)cc1)C(=O)O` (centres undefined), the GI50 with XF498 was > 78.2 µM (inactive); in the test with A498, > 100 µM (inactive); in the test with UACC-257, > 100 µM (inactive); in the test on SK-OV-3 it was > 100 µM (inactive); with HOP-18 it was > 100 µM (inactive); with M19-MEL it was > 100 µM (inactive). For the same molecule, the GI50 is > 76 µM (inactive) in the test with DLD-1; > 95.9 µM (inactive) with SNB-78; 24.3 µM (inactive) with KM-20L2; > 100 µM (inactive) in the test on SNB-19; > 79.6 µM (inactive) in the test on SNB-75; 24.6 µM (inactive) with DMS-273. In addition, the figures for the GI50 with SF-295, with NCI/ADR-RES and in the test on MCF7 were 20.4 µM (inactive), 62.1 µM (inactive) and 64.9 µM (inactive), respectively.
As to `CC1(C)Cc2c(C#N)c(N)c3c(c2CO1)C(=O)OC3=O`, the GI50 in the test with XF498, in the test on SR, in the test on CAKI-1, with SK-OV-3, in the test with HOP-18 and in the test on M19-MEL was > 100 µM (inactive) in each case. For the same molecule, the GI50 with KM-20L2, with ACHN, in the test with SNB-19 and with DMS-273 was > 100 µM (inactive) throughout.
As to `O=c1[nH]c(=O)n(CCOCP(=O)(O)O)nc1Br`, the GI50 in the test with SR, in the test with CAKI-1, in the test on A498, with MDA-MB-435, in the test with ACHN and with BT-549 was > 100 µM (inactive) throughout. Moreover, the GI50 in the test on SNB-19, with SNB-75, in the test with NCI/ADR-RES and in the test with MCF7 was > 100 µM (inactive) in each case.
As to `Oc1cc(O)cc(/C=C/c2ccc(O)c(O)c2)c1` [PICEATANNOL], the GI50 with CAKI-1 is 4.35 µM (inactive); in the test on A498, 40.9 µM (inactive); in the test on UACC-257, > 76.6 µM (inactive); in the test with SK-OV-3, 18.9 µM (inactive); in the test on HOP-18, 45.5 µM (inactive); in the test on M19-MEL, 12.2 µM (inactive). In addition, the GI50 in the test with DLD-1 is 8.57 µM (inactive); with SNB-78, 17.9 µM (inactive); with KM-20L2 it was 23.4 µM (inactive); in the test on SNB-19 it was 24.8 µM (inactive); in the test on SNB-75, 14.1 µM (inactive); with DMS-273, 12.3 µM (inactive). Moreover, the GI50 with SF-295 is 16.5 µM (inactive); in the test on NCI/ADR-RES, 16.6 µM (inactive); with MCF7, 20.1 µM (inactive).
For the molecule `Cc1c(N2C(=O)/C(=C/C=C/c3ccccc3)N=C2c2ccccc2)c(=O)n(-c2ccccc2)n1C`, the GI50 in the test on SR was 17.4 µM (inactive); in the test with CAKI-1 it was 37.8 µM (inactive); in the test on UACC-257, 18.9 µM (inactive); in the test on SK-OV-3, 23 µM (inactive); in the test on MDA-MB-435, 17 µM (inactive); in the test on ACHN it was 17.8 µM (inactive). Also, the GI50 with BT-549 is 20.1 µM (inactive); in the test with SNB-75 it was 3.78 µM (inactive); with SF-295 it was 19.1 µM (inactive); with NCI/ADR-RES it was 21.7 µM (inactive); in the test with MCF7, 28.8 µM (inactive).
In the case of `CCOC(=O)c1sc2nc(SC)nc(Nc3ccc4c(c3)OCCO4)c2c1N`, the GI50 with SR was 20.5 µM (inactive); with CAKI-1, 22.9 µM (inactive); in the test with A498, 11.9 µM (inactive); with UACC-257 it was 21.7 µM (inactive); in the test with MDA-MB-435 it was 18 µM (inactive); with ACHN, 7.28 µM (inactive). Besides, the GI50 with BT-549 was 16 µM (inactive); with SNB-19, 17.6 µM (inactive); in the test with SF-295, 42.3 µM (inactive); in the test on NCI/ADR-RES, 21.6 µM (inactive); in the test with MCF7, 10.5 µM (inactive).
`COc1ccc(Oc2ccccc2N)cc1`: the GI50 with SR is 18.3 µM (inactive); in the test with A498, > 100 µM (inactive); in the test with UACC-257, 57.4 µM (inactive); in the test with SK-OV-3 it was > 100 µM (inactive); in the test on HOP-18 it was > 100 µM (inactive); in the test on M19-MEL, 50.2 µM (inactive). Also, the GI50 with DLD-1 was 30 µM (inactive); with SNB-78, > 100 µM (inactive); with KM-20L2, 27.6 µM (inactive); with ACHN, 24.5 µM (inactive); in the test with SNB-75, 23.7 µM (inactive); in the test on DMS-273 it was 29.5 µM (inactive). Moreover, the GI50 in the test on SF-295 is 26.1 µM (inactive).
`COc1ccc(-c2cc(-c3ccccc3)n(C3OCC(OC(C)=O)C(OC(C)=O)C3OC(C)=O)c(=S)c2C#N)cc1` (centres undefined): the GI50 in the test on SR was > 100 µM (inactive); in the test with CAKI-1, 67.5 µM (inactive); in the test with A498, 72.9 µM (inactive); in the test with UACC-257, > 100 µM (inactive); in the test on SK-OV-3, 66.1 µM (inactive); in the test on MDA-MB-435 it was > 100 µM (inactive). The GI50 in the test with ACHN was 37.4 µM (inactive); in the test on BT-549, > 100 µM (inactive); with SNB-19, > 100 µM (inactive); with SNB-75, > 100 µM (inactive); with SF-295, 56.4 µM (inactive); in the test with NCI/ADR-RES, > 100 µM (inactive). The GI50 in the test with MCF7 was > 100 µM (inactive).
Consider `CCC(=C(C#N)C#N)c1cc(OC)c(OC)c(OC)c1`, for which the GI50 in the test on XF498, in the test with SR, in the test with CAKI-1, in the test on SK-OV-3, with HOP-18 and with M19-MEL was > 100 µM (inactive) in each case. The GI50 in the test with DLD-1, in the test on KM-20L2, with ACHN, with SNB-19 and in the test on DMS-273 was > 100 µM (inactive) throughout.
Turning to `O=C1C=C2SC3C[C@@]24CC1[N+]1=c2c4c(c(O)c4c2=C(C=N4)CC1)N3`, the GI50 was 1.91 µM (inactive) in the test on XF498; 2.62 µM (inactive) in the test with CAKI-1; 5.31 µM (inactive) in the test on A498; 1.7 µM (inactive) with UACC-257; 2.96 µM (inactive) with SK-OV-3; 6.49 µM (inactive) in the test on HOP-18. Moreover, the GI50 is 1.9 µM (inactive) in the test on M19-MEL; 2.07 µM (inactive) in the test with DLD-1; 2.61 µM (inactive) in the test on SNB-78; 1.92 µM (inactive) in the test with KM-20L2; 5.31 µM (inactive) in the test with SNB-19; 4.61 µM (inactive) in the test on SNB-75. In addition, the GI50 in the test with DMS-273 was 2.12 µM (inactive); with SF-295 it was 3.43 µM (inactive); in the test on NCI/ADR-RES it was 6.68 µM (inactive); in the test with MCF7, 2.08 µM (inactive).
For the molecule `COc1cc2c(cc1OC)C(C(c1ccccc1)c1ccccc1)N(C)CC2` (centres undefined), the GI50 with XF498 was 53 µM (inactive); in the test with CAKI-1 it was 0.617 µM (active); in the test on A498 it was > 100 µM (inactive); with UACC-257, 32.9 µM (inactive); in the test with SK-OV-3 it was 79.3 µM (inactive); with HOP-18 it was > 100 µM (inactive). Further, the GI50 in the test on M19-MEL is > 91.6 µM (inactive); in the test on DLD-1, > 78.9 µM (inactive); with SNB-78, > 100 µM (inactive); in the test on KM-20L2, 32.6 µM (inactive); with SNB-19, > 100 µM (inactive); with SNB-75, 49.1 µM (inactive). For the same molecule, the GI50 with DMS-273 is 77.3 µM (inactive); in the test with SF-295, > 75.9 µM (inactive); in the test with NCI/ADR-RES, 68.9 µM (inactive); with MCF7 it was 52.4 µM (inactive).
In the case of `CCOC(=O)c1c(C)c2c(n1C)CCc1c[nH]nc1-2`, the GI50 with XF498, in the test with CAKI-1, in the test on A498, in the test with UACC-257, in the test with SK-OV-3 and in the test with HOP-18 was > 100 µM (inactive) in each case. Further, the GI50 with M19-MEL is > 100 µM (inactive); with DLD-1, > 100 µM (inactive); in the test with SNB-78 it was > 100 µM (inactive); with KM-20L2 it was > 100 µM (inactive); in the test on SNB-19, > 64.6 µM (inactive); in the test on SNB-75, > 100 µM (inactive). Moreover, the GI50 with DMS-273, in the test with SF-295, in the test on NCI/ADR-RES and with MCF7 was > 100 µM (inactive) throughout.
On to `O=C(Nc1ccc([N+](=O)[O-])cc1)Nn1cnnc1`, for which the GI50 with SR is 31.6 µM (inactive); in the test on CAKI-1, > 100 µM (inactive); with A498, 34.1 µM (inactive); with UACC-257, 94 µM (inactive); in the test on SK-OV-3 it was > 100 µM (inactive); in the test on MDA-MB-435 it was 44.9 µM (inactive). The GI50 is > 100 µM (inactive) in the test on ACHN; 20.8 µM (inactive) with BT-549; 57 µM (inactive) with SNB-19; > 100 µM (inactive) in the test on SNB-75; 29 µM (inactive) in the test on SF-295; 73.6 µM (inactive) in the test on MCF7.

Source of the values: ChEMBL document CHEMBL1201862, “PubChem BioAssay data set” (2004).
